Data as given in EPA's ToxValDB 9.5 (doi:10.2903/j.efsa.2014.3787).

Columns and labels:
Tagia sp. = conditions: for LC50: acute, duration: 14 days, mortality; for NOEC: chronic/long-term, duration: 8 weeks
Hypoaspis aculeifer = conditions: acute, duration: 14 days
Folsomia candida = conditions: chronic/long-term, duration: 28 days
Aphidius rhopalosiphi = assay: LR50; higher = less toxic; conditions: acute; duration: 48 hours; mortality
Typhlodromus pyri = assay: LR50; higher = less toxic; conditions: chronic/long-term; duration: 7 days; mortality
Lepomis macrochirus = conditions: acute; duration: 96 hours; mortality
Daphnia magna = conditions: chronic/long-term; duration: 21 days; mobility
Coturnix japonica = conditions: reproduction developmental; duration: 6 weeks
Apis mellifera = conditions: acute, duration: 72 hours, mortality
Colinus virginianus = conditions: acute, oral

With `NS(=O)(=O)c1ccccc1C(=O)O` [2-Sulfamoylbenzoic acid] the LC50 (Tagia sp.) was greater than 1000 mg/kg and the NOEC (Tagia sp.) was 1000 mg/kg.

Work on `CCOc1nc(NC)nc(NC(N)=O)n1` [Ethametsulfuron methyl metabolite (IN-B9161)] yielded an NOEC (Hypoaspis aculeifer) of 76.9 mg/kg and an NOEC (Folsomia candida) of 76.9 mg/kg.

With `CCOc1nc(NC)nc(NC(=O)NS(=O)(=O)c2ccccc2C(=O)OC)n1` [Ethametsulfuron-methyl] the LR50 (Aphidius rhopalosiphi) was greater than 18.8 g/ha, the LR50 (Typhlodromus pyri) was greater than 11.4 g/ha and the LC50 (Lepomis macrochirus) was greater than 123 µg/mL. For the same compound, the NOEC (Daphnia magna) was 4.7 mg/L, the LC50 (Tagia sp.) was 116 mg/kg and the NOEC (Tagia sp.; reproduction) was 27.3 mg/kg. It also gave an NOEC (Coturnix japonica) of 229 mg/kg-day, an NOEC (Hypoaspis aculeifer; reproduction) of 100 mg/kg and an LOAEL (Oryctolagus sp.; developmental, development) of 250 mg/kg-day. It also gave an NOAEL (Oryctolagus sp.; reproduction developmental, organ weight) of 250 mg/kg-day, an LD50 (Apis mellifera; dermal) of 4.62 µg/piece and an LD50 (Apis mellifera; oral, unspecified) of 40.8 µg/piece. For the same compound, the NOEC (Folsomia candida; reproduction) was 100 mg/kg, the LD50 (Rattus norvegicus; acute, oral, mortality) was greater than 5000 mg/kg-day and the NOAEL (Rattus norvegicus; chronic, duration: 2 years, clinical chemistry) was 21 mg/kg-day. It also gave an LC50 (Oncorhynchus mykiss; acute, duration: 96 hours, mortality) greater than 126 µg/mL, an NOEC (Oncorhynchus mykiss; chronic/long-term, duration: 87 days, growth) of 5.4 mg/L and an LD50 (Colinus virginianus; duration: 5 days, diet) greater than 1160 mg/kg-day. The LD50 (Colinus virginianus) was 2250 mg/kg-day.

Compound `CCOc1nc(N)nc(NC(=O)NS(=O)(=O)c2ccccc2C(=O)OC)n1` [N-Demethyl ethametsulfuronmethyl] has an LC50 (Tagia sp.) greater than 100 mg/kg and an NOEC (Folsomia candida) of 50 mg/kg.
